# Values of other authors, collected in patent publication US4717569A, “Unit dosage form of sparingly soluble medicaments” (Sterling Drug Inc., priority 1984, dated 1988).
# Legend:
# pituitary gonadotrophins = details: in patients, background
# [1] = in patients, background
# [2] = pH 6.0-7.0, intestinal juices
Compound,effect on pituitary gonadotrophins (pituitary gonadotrophins),oestrogenic or progestational activity [1],solubility at intestinal pH [2]
"C#C[C@]1(O)CC[C@H]2[C@@H]3CCC4=Cc5oncc5C[C@]4(C)[C@H]3CC[C@@]21C [Compound A, 17α-pregna-2,4-diene-20-yno[2,3-d]isoxazol-17-ol]",inhibits the synthesis or release of pituitary gonadotrophins,without exhibiting oestrogenic or progestational activity,
OCCN(CCO)c1nc(N2CCCCC2)c2nc(N(CCO)CCO)nc(N3CCCCC3)c2n1 [dipyridamole],,,insoluble
